Test results from US20220135564A1, “DEUTERATED MITRAGYNINE ANALOGS AS SAFER OPIOID MODULATORS IN THE MITRAGYNINE CLASS” (The Trustees of Columbia University in the City of New York, priority 2019, published 2022).
Counter-ions that a name gives are not always drawn.

Tests used:
[1] = system: male mice (C57BL/6J); test: Rotarod test in mice (motor coordination); assay type: in vivo, mouse; conditions: male C57BL/6J mice, s.c., cumulative 3, 10, 30 mg/kg, compared to vehicle
Method: The rotarod test is useful for measuring the motor coordination of rodents and therefore, for identifying test drugs that induce ataxic effects. 3-Dehydromitragynine (DHM) reduces the performance of mice in this test in a dose-dependent manner; indicating an impairment of motor coordination by this compound (FIG. 1).
Animals. This study was conducted using male C57BL/6J mice, 7 weeks of age (n=10/treatment), purchased from The Jackson Laboratory (Bar Harbor, Me.). Animals were housed in groups of five and allowed to acclimate for 1 week prior to testing. Mice had ad libitum access to food and water and were maintained on a 12-hour light/dark cycle. All testing was done in the light cycle.
Drug. DHM hydrochloride was dissolved in double-distilled H2O containing 10% N-methyl-2-pyrrolidone (NMP). Drug or vehicle was administered subcutaneously 15 minutes prior to the start of behavioral testing at a volume of 10 mL/kg body weight. Dosing was performed cumulatively at 3, 10, and 30 mg/kg, with 1 hour between injections.
Rotarod Testing. On the test day, animals were acclimated to the testing room for 1 hour. An accelerating rotarod (Model 7650, UGO Basile, Comeria, VA, Italy) was used to measure the motor coordination of the animals. Time on the rotarod was measured by stopwatch, starting when animals were placed on the rod and ending at the time the animal fell off the apparatus. […]

[2] = system: mice (129Sv6 or CD-1 strain); test: Lethality assay in mice; assay type: in vivo, mouse; conditions: s.c., lethality 24 h after administration
Method: Lethality Assay. Groups of mice (n=6 per dose, 129Sv6 or CD-1 strain) were treated subcutaneously (s.c.) with different doses of DHM and tested for lethality 24 h after drug administration.

[3] = Metabolic profiling of DHM in mouse liver S9 fraction (MS9); assay type: in vitro ADME; conditions: DHM 10 μM, MS9, 60-min incubation, positive ion mode
Method: Analytical System. The metabolic profiling of DHM in mouse liver S9 fraction was performed using high performance liquid chromatography-tandem mass spectrometry (HPLC-MS/MS). A Shimadzu HPLC system comprising 2 isocratic pumps (LC-10ADvp), an autosampler (SIL-30ACMP), a system controller (CBM-20A), a high-pressure switching valve (FCV-20AH6), and a degasser (DGU-14A) was used for separations. Mass spectrometric analyses were performed using an API 4000 QTRAP mass spectrometer from Applied Biosystems/MDS Sciex (AB Sciex) with Turbo V ion source and TurboIonspray interface. Data acquisition and system control was performed using Analyst 1.6.3 software from AB Sciex.
Liver S9 Incubations. Liver S9 fraction pooled from male CD-1 mice was used. Incubations were carried out in 1.1 mL microtubes (in 96-well format plate) in aliquots of 40 μL each (2 for each time point; 0, 6, 16, 30, and 60 min). […] Control incubations were performed replacing the cofactor system with phosphate buffer. Test compound DHM (10 μM, final solvent concentration 1.6%) was incubated with S9 at 37° C., shaking at 100 rpm. Incubations were performed in duplicate. Five time points over 60 minutes (0, 6, 16, 30, and 60 min) were analyzed. […] Supernatants (two time points, 0 and 60 min) were analyzed for remaining parent compound and putative metabolites by HPLC-MS/MS.
General Strategy for Identification of Metabolites. […]

[4] = system: mice; test: Analgesic activity of DHM in mice; assay type: in vivo, mouse

CC[C@@H]1C[N+]2=C(C[C@@H]1/C(=C\OC)C(=O)OC)c1[nH]c3cccc(OC)c3c1CC2 [DHM, 3-Dehydromitragynine hydrochloride]
motor coordination, latency to fall in the rotarod test [1]: dramatically impairs motor coordination | LD50 (95% confidence interval) ([2]; 129Sv6 mice): 48.4 (71.27-342.3) mg/kg | LD50 (95% confidence interval) ([2]; CD-1 mice): 74 (48.08-120.5) mg/kg | % Area [3]: 20% | analgesic activity on its own [4]: does not exhibit analgesic activity
